{"source": "patent US20230323293A1", "about": "“EXPANSION CULTURE MEDIUM AND CULTURE METHOD FOR NEURAL CELLS” (INSTITUTE OF ZOOLOGY, CHINESE ACADEMY OF SCIENCES, priority 2020, published 2023)", "key": {"microglial progenitors": {"tested_on": "microglial progenitors", "test": "Proliferation of microglial progenitors", "assay_type": "cell-based", "details": "10 μM", "method": "• (1) On the 0th day, ESCs were digested with Accutase into single cells, counted and inoculated into a V-bottom 96-well plate at a concentration of 10,000/well, and cultured statically. • (2) From the 0th to 4th day, the medium was microglial induction medium: DMEM/F12, 20% KOSR, 1× Glutamax, 1×NEAA, 50 ng/ml BMP4, 50 ng/ml VEGF, 20 ng/ml SCF, 10 μM Y-27632. • (3) On the 4th day, the suspended EBs were subjected to adherent culture in a 6-well plate, the culture medium was changed on the 4th day and then the static culture was carried out until the 11th day. From the 4th to 11th day, the culture medium was microglial differentiation medium: X-VIVO15, 1× Glutamax, 25 ng/ml IL-34, 50 ng/ml M-CSF. At this stage, Blebbistatin was added at a concentration of 10 μM. • (4) On the 11th day, the single cells suspended in the medium were collected and counted, and the EBs were continued to be cultured with the microglial differentiation medium, and the suspended cells in the supernatant were collected every 7 days for a total of 3 collections. • (5) Maturation of microglial cells: The supernatant was discarded after centrifugation, the cells were resuspended in a microglial maturation medium and inoculated on Matrigel pre-coated culture plates. The microglial cells matured after being continuously cultured for 14 days. […]"}, "GABA progenitor cells": {"tested_on": "GABA progenitor cells", "test": "Proliferation of GABA progenitor cells", "assay_type": "cell-based, human", "details": "10 μM, P4 to P5, versus control group", "method": "(§1) (1) hESCs were cultured and differentiation was conducted until about 80% confluence. On the 0th day, the cells were dissociated with Dispase (1 U/mL), and the bottom cell mass was harvested and spread on an ultra-low adsorption 10 cm culture dish.\n(2) From the 1st day, the neural induction was started by using NIM medium supplemented with 100 nM LDN193189, 10 μM SB431542, and 2 μM XAV939. […]"}, "astrocytes": {"tested_on": "astrocytes", "test": "Expansion experiment of astrocytes", "assay_type": "cell-based, human", "details": "10 μM, P2 to P6, versus control group", "method": "as §1, with “plated in” for “spread on”, “dish. • (2) From the 1st day, the neural induction was started by replacing with NIM medium supplemented with neural induction molecules 100 nM LDN193189 and 10 μM SB431542. […]” for “dish.”"}, "NSCs": {"tested_on": "NSCs", "test": "Proliferation of neural stem cells", "assay_type": "cell-based, human", "details": "10 μM, P4 to P6", "method": "The differentiation method was referred to Tchieu et al., A Modular Platform for Differentiation of Human PSCs into All Major Ectodermal Lineages. 2017, Cell Stem Cell 21, 399-410.\nNSCs were cultured with expansion medium after adherence, DMEM/F12 (1×, Gibco) supplemented with […] human (EGF) (R&D), […] (bFGF) (R&D), 5 μg/ml Heparin (Sigma), 2% B27 (Gibco), 1× GlutaMAX, and 10 μM Blebbistatin was added to the experimental group. Half of the culture medium was changed every day."}}}
{"smiles": "Cc1ccc2c(c1)C(=O)[C@]1(O)CCN(c3ccccc3)C1=N2", "note": "[Blebbistatin, (S)-(−)-Blebbistatin]", "values": [{"measurement": "proliferation of microglial progenitors and differentiation efficiency", "setting": "microglial progenitors", "value": "could promote the proliferation of microglial progenitors and improve the differentiation efficiency"}, {"measurement": "number of suspension cells collected", "setting": "microglial progenitors; first two collections, versus control group", "value": "increased significantly"}, {"measurement": "expansion ability of GABA progenitor cells", "setting": "GABA progenitor cells", "value": "significantly improved"}, {"measurement": "expansion ability of astrocytes", "setting": "astrocytes", "value": "significantly improved"}, {"measurement": "expansion of NSCs", "setting": "NSCs", "value": "significantly promoted the expansion of NSCs"}]}
